Laboratory results from patent US20230286955A1, “INHIBITORS OF THEM1” (Cornell University, priority 2022, published 2023).

How the values were obtained:
[1] = target: full-length human Acot12 (Homo sapiens, UniProt Q8WYK0); experiment: biochemical
Method: (§1) Reaction labeling recombinant full-length Them1, Them1l-ΔSTART, START or Acot12 with Monolith RED-Tris-NTA (NanoTemper Technologies; San Francisco, CA) were performed according to the manufacturer's instructions in buffer containing PBS plus 0.5% Tween-20 for 60 min at 22° C. with a molar dye: protein ratio=1:1. […] Working concentrations of compounds were prepared by diluting in microscale thermophoresis buffer. Reactions consisting of 100 nM of fluorescently labeled recombinant protein (full-length Them1, Them1-ΔSTART, START or Acot12) and compounds were loaded onto standard Monolith NT.115 Capillaries (NanoTemper Technologies; San Francisco, CA). Fluorescence was measured using a Monolith NT.115 instrument (NanoTemper Technologies; San Francisco, CA) at 22° C. with instrument parameters adjusted to 40% LED power and medium microscale thermophoresis power. Data were fitted by non-linear regression in GraphPad Prism (GraphPad Software; San Diego, CA).

[2] = system: primary brown adipocytes cultured from A-Them1Tg mice; experiment: Oxygen consumption rates (OCR) in primary brown adipocytes; type: cell-based, mouse; conditions: compounds at their in vitro IC50 concentrations, 30 min, NE 1 μM; vs wild type (DMSO)
Method: Primary brown adipocytes from 4- to 6-w old wild type and A-Them1Tg mice were isolated, cultured and differentiated as described (Okada et al., 2016). In brief, BAT tissues harvested from 5- to 7-w old mice were pooled, minced and digested with collagenase B (Sigma-Aldrich; St. Louis, MO), and dispersed in growth medium [DMEM/F12 containing 4.5 g/L glucose, 0.1 mM pyruvate, 10 mM HEPES (Thermo Fisher; Waltham, MA) supplemented with 1% penicillin/streptomycin, 1% GlutaMAX (Thermo Fisher; Waltham, MA) and 20% fetal bovine serum]. […] Upon achieving confluence, pre-adipocytes were induced to differentiate for 8 d by culturing for the first 48 h in differentiation medium [DMEM/F12 containing 4.5 g/L glucose, 0.1 mM pyruvate, 10 mM HEPES (Thermo Fisher; Waltham, MA) supplemented with 1% penicillin/streptomycin, 1% GlutaMAX (Thermo Fisher; Waltham, MA), 10% fetal bovine serum, bovine insulin (5 μg/mL; Thermo Fisher; Waltham, MA) and rosiglitazone (1 μM; Sigma Aldrich; St. Louis, MO)] supplemented with dexamethasone (5 μM; Sigma Aldrich; St. Louis, MO) and 3-isobutyl-1-methylxanthine (0.5 mM; Sigma Aldrich; St. Louis, MO) and differentiation medium thereafter. On differentiation d 6 to 8, the adipocyte differentiation media was supplemented with L-(−)-norepinephrine (+) bitartrate (Calbiochem; EMD Millipore; Billerica, MA). Primary brown adipocytes were maintained in a cell culture incubator at 37° C. with 5% CO2.
In primary brown adipocytes on d 8 of differentiation, values of OCR were measured in the presence or absence of compounds using a Seahorse XF96 extracellular flux analyzer (Agilent Technologies; Santa Clara, CA). […] OCR values were measured before and after the exposure of cells to NE (1 μM) and normalized with total live cell count calculated through staining with NucRed Live probe (Thermo Fisher; Waltham, MA) measured at 715 nm emission and 623 nm excitation using a SpectraMax i3X plate reader (Molecular Devices; San Jose; CA).

[3] = in vitro; conditions: C57BL/6, mouse, primary brown adipocytes
Method: Cytotoxicities of compounds were determined using a CellTiter-Glo® Luminescent Cell Viability Assay, which measures concentrations of ATP liberated from viable cells (Promega; Madison, WI). […] Tamoxifen (50 μM) was used as a (+) control. CellTiter-Glo reagent (10 μL) was added to each well and incubated on an orbital shaker for 10 min at 22° C. to induce cell lysis and stabilize the luminescent signal. Relative luminescent units (RLU) were determined using a NEO plate reader (BioTek, Winooski, VT).

[4] = target: T1, Them1-ΔSTART (Homo sapiens, UniProt Q8WXI4); experiment: Microscale thermophoresis binding, Them1-ΔSTART; conditions: for Kd: read-out: Kd, Thioesterase domains (Them1-ΔSTART ), MST, 100 nM labeled protein, 22° C.; for binding to Them1-ΔSTART: in words
T1 sequence (Q8WXI4 43-329 isoform Q8WXI4-2 limits assumed): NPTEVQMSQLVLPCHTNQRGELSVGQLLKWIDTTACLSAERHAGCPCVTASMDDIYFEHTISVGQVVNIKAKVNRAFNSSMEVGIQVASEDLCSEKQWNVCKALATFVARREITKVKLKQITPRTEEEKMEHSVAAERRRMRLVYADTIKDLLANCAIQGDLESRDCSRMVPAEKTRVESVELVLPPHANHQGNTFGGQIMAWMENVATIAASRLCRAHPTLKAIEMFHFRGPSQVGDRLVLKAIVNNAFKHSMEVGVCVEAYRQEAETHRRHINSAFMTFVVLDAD
Method: (§2) Data represent the mean (s.e.m.) of triplicate determinations. Where not visible, error bars are contained within the symbol sizes.
as §1

[5] = target: T2, recombinant human Them1 (Homo sapiens, UniProt Q8WXI4); experiment: Acot activity assay (fluorometric, C14-CoA), inhibition of Them1; type: biochemical; conditions: in words
T2 construct: Reaction labeling recombinant full-length Them1; made in house; host or cells: E. coli Shuffle T7
T2 sequence (Q8WXI4 14-594 isoform Q8WXI4-2 limits assumed): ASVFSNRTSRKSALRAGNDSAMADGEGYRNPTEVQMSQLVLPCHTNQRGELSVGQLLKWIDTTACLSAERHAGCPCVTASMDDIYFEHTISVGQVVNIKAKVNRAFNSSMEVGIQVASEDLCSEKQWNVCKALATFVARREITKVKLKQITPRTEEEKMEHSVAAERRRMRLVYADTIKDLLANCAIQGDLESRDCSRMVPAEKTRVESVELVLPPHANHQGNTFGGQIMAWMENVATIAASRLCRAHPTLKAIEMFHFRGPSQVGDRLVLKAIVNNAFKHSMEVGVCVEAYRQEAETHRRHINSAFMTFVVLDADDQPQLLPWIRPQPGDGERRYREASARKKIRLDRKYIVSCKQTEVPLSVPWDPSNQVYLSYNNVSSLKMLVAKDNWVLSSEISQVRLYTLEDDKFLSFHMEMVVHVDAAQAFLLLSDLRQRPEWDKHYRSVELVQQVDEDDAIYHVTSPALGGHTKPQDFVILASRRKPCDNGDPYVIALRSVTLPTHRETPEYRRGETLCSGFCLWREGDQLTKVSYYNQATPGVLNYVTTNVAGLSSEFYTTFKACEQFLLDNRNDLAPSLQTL
Method: Human Them1 consists of two splice variants (Them1a and Them1b) that are distinguished by an additional 13 amino acids at the C-terminus of the ‘a’ isoform (Adams et al., 2001). […] Sufficient quantities of recombinant Them1 required for the HTS were obtained as a service of the University of Georgia Bioexpression and Fermentation Core Facility (Athens, GA). […] Purity of recombinant Them1 was analyzed by SDS-PAGE followed by Coomassie Brilliant Blue staining. The concentration of recombinant Them1 was determined according to the molar extinction coefficient at 280 nm, which was calculated based on the amino acid sequence (www.expasy.org). Single use aliquots of recombinant Them1 were stored at −80° C. until use to prevent protein precipitation during purification. The pH values of all buffers were adjusted to remain at least two units removed from the pI of recombinant Them1.

[6] = target: T3, full-length Them1 (Homo sapiens, UniProt Q8WXI4); experiment: Microscale thermophoresis binding, full-length Them1; conditions: in words
T3 sequence (Q8WXI4 14-594 isoform Q8WXI4-2 limits assumed): T2 sequence (Q8WXI4 14-594 isoform Q8WXI4-2 limits assumed)
Method: as §2, §1

[7] = target: T4, Them1 START domain (Homo sapiens, UniProt Q8WXI4); experiment: Microscale thermophoresis binding, START domain; conditions: in words
T4 sequence (Q8WXI4 339-594 isoform Q8WXI4-2): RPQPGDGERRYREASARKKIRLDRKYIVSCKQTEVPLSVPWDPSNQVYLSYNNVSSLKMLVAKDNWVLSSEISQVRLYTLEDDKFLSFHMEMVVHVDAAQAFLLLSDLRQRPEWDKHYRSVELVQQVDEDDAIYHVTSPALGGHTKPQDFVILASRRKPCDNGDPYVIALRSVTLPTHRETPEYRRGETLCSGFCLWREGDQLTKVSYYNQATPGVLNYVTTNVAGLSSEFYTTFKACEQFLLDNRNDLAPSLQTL
Source text: A synthetic gene encoding the START domain was cloned into a pNIC28-Bsa4 bacterial expression vector (Novagen, EMD Biosciences; Madison, WI), which introduced an in-frame N-terminal His6 fusion containing a tobacco etch virus protease cleavage site to facilitate tag removal. The pNIC28-Bsa4-START domain plasmid was co-transformed into E. coli BL21 (DE3) (New England Biolabs; Ipswich, MA) competent cells with a pG-Tf2 vector (encoding groES-gorEL-tig chaperones) and then grown to an A600 of 0.5-0.7 in terrific broth. Under conditions of shaking (250 rpm) at 18° C., chaperones were induced by the addition of 5 ng/mL tetracycline HCl for 60 min followed by START domain induction upon the addition of 0.5 mM isoproyl β-D-thiogalactoside for ˜18 h. The bacteria were harvested by centrifugation, and then lysed by sonication with 20 mM Tris-Cl (pH 7.4), 500 mM NaCl, 25 mM imidazole, 5% glycerol, lysozyme, Dnase A, 0.1% Triton X-100, 5 mM β-mercaptoethanol and 100 μM phenylmethylsulfonyl fluoride. Following centrifugation of the bacterial lysate, recombinant START was purified by FPLC using a His affinity column (HisTrap HP column; GE Healthcare; Waukesha, WI). The soluble fraction containing recombinant START was applied to the column after equilibration with 20 mM Tris-Cl (pH 7.4), 500 mM NaCl, 25 mM imidazole and 5% glycerol, and then washed with the same buffer. Recombinant START was eluted from the HisTrap HP column using 20 mM Tris-Cl (pH 7.4), 500 mM NaCl, 500 mM imidazole and 5% glycerol followed by tobacco etch virus protease-mediated His-tag cleavage at 4° C. overnight with simultaneous dialysis into 20 mM Tris-Cl (pH 7.4), 500 mM NaCl and 5% glycerol. Recombinant START was further purified using a Superdex column (HiLoad 16/60 Superdex 75 column; GE Healthcare; Waukesha, WI) in 20 mM Tris-Cl (pH 7.4), 500 mM NaCl and 5% glycerol. Assessment of purity, protein concentration and storage of single use aliquots of recombinant START were performed as described above for recombinant Them1.
Reaction labeling recombinant full-length Them1, Them1l-ΔSTART, START or Acot12 with Monolith RED-Tris-NTA (NanoTemper Technologies; San Francisco, CA) were performed according to the manufacturer's instructions in buffer containing PBS plus 0.5% Tween-20 for 60 min at 22° C. with a molar dye: protein ratio=1:1. […] Working concentrations of compounds were prepared by diluting in microscale thermophoresis buffer. […] Fluorescence was measured using a Monolith NT.115 instrument (NanoTemper Technologies; San Francisco, CA) at 22° C. with instrument parameters adjusted to 40% LED power and medium microscale thermophoresis power. […]

Sequence of full-length human Acot12 (Q8WYK0 whole entry): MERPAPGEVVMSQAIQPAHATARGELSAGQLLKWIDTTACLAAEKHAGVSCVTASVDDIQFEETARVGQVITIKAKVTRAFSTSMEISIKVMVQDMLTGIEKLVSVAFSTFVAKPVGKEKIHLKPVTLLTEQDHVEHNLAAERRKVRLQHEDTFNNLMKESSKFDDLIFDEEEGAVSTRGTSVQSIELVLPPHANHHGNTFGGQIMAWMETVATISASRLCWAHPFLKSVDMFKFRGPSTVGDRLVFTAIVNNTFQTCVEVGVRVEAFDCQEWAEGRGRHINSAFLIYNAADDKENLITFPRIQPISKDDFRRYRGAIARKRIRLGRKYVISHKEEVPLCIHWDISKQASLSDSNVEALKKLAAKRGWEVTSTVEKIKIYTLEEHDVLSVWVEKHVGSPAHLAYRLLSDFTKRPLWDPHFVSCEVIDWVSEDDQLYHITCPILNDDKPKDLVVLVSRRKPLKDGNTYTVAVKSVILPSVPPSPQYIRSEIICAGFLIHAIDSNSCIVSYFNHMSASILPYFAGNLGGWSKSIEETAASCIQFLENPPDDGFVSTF

Cc1[nH]c2ccccc2c1C(c1cccs1)N1CCN(C(=O)OCc2ccccc2)CC1 (centres unmarked) [benzyl 4-((2-methyl-1H-indol-3-yl)(thiophen-2-yl)methyl)piperazine-1-carboxylate]
Kd [1]: > 125 µM
OCR in A-Them1Tg brown adipocytes, reversal of Them1 suppression [2]: remained suppressed

Cc1[nH]c2ccccc2c1C(c1cccs1)N1CCCCC1 (centres unmarked) [Compound U6]
Kd [1]: > 125 µM
OCR in A-Them1Tg brown adipocytes, reversal of Them1 suppression [2]: reversed the suppressive effects of Them1 on values of OCR
CC50 at 48 h [3]: > 125 µM
Kd [4]: > 125 µM

Cc1[nH]c2ccccc2c1C(c1cccs1)N1CCNCC1 (centres unmarked) [Compound U9, 2-methyl-3-(piperazin-1-yl(thiophen-2-yl)methyl)-1H-indole]
Kd [1]: > 125 µM
OCR in A-Them1Tg brown adipocytes, reversal of Them1 suppression [2]: reversed the suppressive effects of Them1 on values of OCR
CC50 at 48 h [3]: > 125 µM
Kd [4]: > 125 µM

Cc1[nH]c2ccccc2c1C(c1cccs1)N1CCN(Cc2ccccc2)CC1 (centres unmarked) [3-((4-benzylpiperazin-1-yl)(thiophen-2-yl)methyl)-2-methyl-1H-indole]
Kd [1]: > 125 µM
OCR in A-Them1Tg brown adipocytes, reversal of Them1 suppression [2]: reversed the suppressive effects of Them1 on values of OCR
CC50 at 48 h [3]: > 125 µM

CC(=O)N1CCN(C(c2cccs2)c2c(C)[nH]c3ccccc23)CC1 (centres unmarked) [Compound U10, 1-(4-((2-methyl-1H-indol-3-yl)(thiophen-2-yl)methyl)piperazin-1-yl)ethan-1-one]
Kd [1]: > 125 µM
CC50 at 48 h [3]: > 125 µM
Kd [4]: > 125 µM

Cc1[nH]c2ccccc2c1C(c1cccs1)N1CCOCC1 (centres unmarked) [Compound U5]
CC50 at 48 h [3]: > 125 µM

Cc1[nH]c2ccccc2c1C(c1cccs1)N1CCN(c2ccccc2)CC1 (centres unmarked) [Compound U4]
IC50 value compared to the parent U1 compound [5]: comparable
CC50 at 48 h [3]: > 125 µM
Kd / binding affinity to full-length Them1 compared to the parent U1 compound [6]: comparable

Cc1[nH]c2ccccc2c1C(c1cccs1)N1CCN(C(=O)c2ccccc2)CC1 (centres unmarked) [Compound U13, (4-((2-methyl-1H-indol-3-yl)(thiophen-2-yl)methyl)piperazin-1-yl)(phenyl)methanone]
Kd [1]: > 125 µM
CC50 at 48 h [3]: > 125 µM
binding to Them1-ΔSTART [4]: did not bind
Kd [4]: > 125 µM
Kd / binding affinity to full-length Them1 compared to the parent U1 compound [6]: comparable
binding affinity to the START domain compared to the parent U1 compound [7]: comparable

CCOC(=O)N1CCN(C(c2ccc(C)s2)c2c(C)[nH]c3ccccc23)CC1 (centres unmarked) [Compound U16, ethyl 4-((2-methyl-1H-indol-3-yl)(5-methylthiophen-2-yl)methyl)piperazine-1-carboxylate]
Kd [1]: > 125 µM
CC50 at 48 h [3]: > 125 µM
binding to Them1-ΔSTART [4]: did not bind
Kd [4]: > 125 µM
Kd / binding affinity to full-length Them1 compared to the parent U1 compound [6]: comparable
binding affinity to the START domain compared to the parent U1 compound [7]: comparable

Cc1[nH]c2ccccc2c1C(c1cccs1)N1CCCC1 (centres unmarked) [Compound U2]
CC50 at 48 h [3]: > 125 µM

CCOC(=O)C1CCN(C(c2cccs2)c2c(C)[nH]c3ccccc23)CC1 (centres unmarked) [Compound U7, ethyl 1-((2-methyl-1H-indol-3-yl)(thiophen-2-yl)methyl)piperidine-4-carboxylate]
Kd [1]: > 125 µM
CC50 at 48 h [3]: > 125 µM
binding to Them1-ΔSTART [4]: did not bind
Kd [4]: > 125 µM
Kd / binding affinity to full-length Them1 compared to the parent U1 compound [6]: comparable
binding affinity to the START domain compared to the parent U1 compound [7]: comparable

CCOC(=O)N1CCN(C(c2ccccc2)c2c(C)[nH]c3ccccc23)CC1 (centres unmarked) [ethyl 4-((2-methyl-1H-indol-3-yl)(phenyl)methyl)piperazine-1-carboxylate]
Kd [1]: > 125 µM

Cc1[nH]c2ccccc2c1C(c1cccs1)N1CCN(C)CC1 (centres unmarked) [Compound U3]
CC50 at 48 h [3]: > 125 µM
